Data: ChEMBL document CHEMBL1201862, “PubChem BioAssay data set” (2004)
Activity calls are given as the source filed them.

Key:
Major prion protein = Major prion protein (Homo sapiens, UniProt P04156); format: functional, cell-based
cells [1] = assay: cells
Galanin receptor type 3 = Galanin receptor type 3 (Homo sapiens, UniProt O60755); assay: Fluorescence-based cell-based primary high throughput dose response assay to identify antagonists of the Galanin Receptor 3 (GalR3).; format: functional
cells [2] = format: functional, cell-based; conditions: HEK-CNG
Coagulation factor XII = biological target: T1, Coagulation factor XII (Homo sapiens, UniProt P00748); format: functional;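 also: activated factor XIIa alpha cleaving a fluorogenic AMC peptide substrate; inhibitor potency from loss of enzyme activity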
T1 sequence (P00748 whole entry): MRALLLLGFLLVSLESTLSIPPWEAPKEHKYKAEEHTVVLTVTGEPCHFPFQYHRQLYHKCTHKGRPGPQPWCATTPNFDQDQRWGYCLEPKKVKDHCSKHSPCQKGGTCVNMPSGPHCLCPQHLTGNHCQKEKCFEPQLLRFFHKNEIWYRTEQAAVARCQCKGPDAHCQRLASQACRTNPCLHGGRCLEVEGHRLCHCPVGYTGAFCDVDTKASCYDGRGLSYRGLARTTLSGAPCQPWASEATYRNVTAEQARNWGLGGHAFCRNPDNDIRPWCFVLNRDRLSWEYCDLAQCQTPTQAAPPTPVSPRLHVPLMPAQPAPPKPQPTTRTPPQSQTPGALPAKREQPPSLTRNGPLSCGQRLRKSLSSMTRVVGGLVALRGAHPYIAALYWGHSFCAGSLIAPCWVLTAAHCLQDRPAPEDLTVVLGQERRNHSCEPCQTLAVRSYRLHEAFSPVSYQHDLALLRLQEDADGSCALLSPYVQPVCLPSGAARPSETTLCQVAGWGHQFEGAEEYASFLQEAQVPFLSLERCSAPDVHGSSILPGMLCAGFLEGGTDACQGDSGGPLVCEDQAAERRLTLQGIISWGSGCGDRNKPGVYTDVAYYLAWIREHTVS

Mu-type opioid receptor = Mu-type opioid receptor (Homo sapiens, UniProt P35372); format: functional, cell-based;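 also: U2OS cells with beta-arrestin recruitment to OPRM1 by beta-gal complementation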
[3] = biological target: 5-hydroxytryptamine receptor 2A (Mus musculus, UniProt P35363); format: functional, cell-based;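 also: CHO-K1 cells with tagged receptor and beta-arrestin; agonist potency measured as compound-induced activation of the receptor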
cells [4] = assay: cells; remark: listed apart in the source
HEK293 [5] = assay: inhibition of NOD1-driven NF-kB reporter – cell-based, luminescence, uHTS, primary screen (AID 1578); format: functional; conditions: Homo sapiens
HEK293 [6] = assay: cells; format: functional, cell-based; conditions: Homo sapiens
HEK293 [7] = assay: cells; format: functional, cell-based; conditions: Homo sapiens; remark: listed apart in the source
HEK293 [8] = assay: NOD2 signaling inhibitors in MDP-stimulated cells, cell-based, uHTS, luminescence (AID 2001); format: functional; conditions: Homo sapiens
[9] = biological target: T2, Beta-2 adrenergic receptor (Homo sapiens, UniProt P07550); assay: ADRB2 activation measured by internalization – cell-based, FAP fluorogen, flow cytometry, cherry pick 1, dose response (AID 588763); format: functional
[10] = biological target: T2, Beta-2 adrenergic receptor; assay: Dose response for HTS for Beta-2AR agonists via FAP method from Powderset3.; format: functional
[11] = NIH-3T3 fibroblast cytotoxicity, dose response, cytotoxicity control, cell-based, fluorescence, Alamar Blue, secondary assay (AID 2327); format: functional;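 also: NIH-3T3 mouse fibroblasts cultured with fluconazole at 8 µg/mL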
[12] = fluconazole-exposed Candida albicans growth modulators – fluorescence, retest, confirmation (AID 2467); format: functional, cell-based
Vero [13] = assay: cells; format: functional, cell-based; conditions: Chlorocebus sabaeus
Vero [14] = assay: cells; format: functional; conditions: Chlorocebus sabaeus
[15] = biological target: SWI/SNF-related matrix-associated actin-dependent regulator of chromatin subfamily A member 2 (Homo sapiens, UniProt P51531); assay: Luminescence-based cell-based high throughput dose response assay to identify activators of the function of SWI/SNF related, matrix associated, actin dependent regulator of chromatin, subfamily a, member 2 (SMARCA2, BRM).; format: functional
[16] = Counterscreen for activators of the function of SWI/SNF related, matrix associated, actin dependent regulator of chromatin, subfamily a, member 2 (SMARCA2, BRM): Luminescence-based cell-based high throughput dose response assay to identify non-selective compounds using the VP16 reporter assay.; format: functional
cells [17] = format: functional, cell-based
[18] = biological target: Nuclear receptor subfamily 0 group B member 1 (Homo sapiens, UniProt P51843); format: functional, cell-based;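 also: HEK293T cells transfected with SF-1 and DAX-1 plus StAR promoter luciferase reporter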
[19] = biological target: T3, Sentrin-specific protease 1 (Homo sapiens, UniProt Q9P0U3); assay: SENP1 catalytic domain blockers, concentration series – biochemical, kinetic FRET, dose response (AID 651697); format: functional; conditions: read-out: IC50_Mean
[20] = biological target: T3, Sentrin-specific protease 1; assay: Dose response confirmation of small molecule inhibitors of the catalytic domain of the SUMO protease, SENP1 in a FRET assay.; format: functional; conditions: read-out: IC50_Mean
[21] = biological target: T4, Methionyl-tRNA synthetase, putative (Trypanosoma brucei brucei, UniProt Q38C91); format: functional, Trypanosoma brucei brucei strain 927/4 GUTat10.1
[22] = Counterscreen for inhibitors of Trypanosoma brucei methionyl tRNA synthetase (MetRS): Luminescence-based cell-based high throughput dose response assay to identify compounds that are cytotoxic to Jurkat human T lymphocyte cells.; format: functional
[23] = biological target: T4, Methionyl-tRNA synthetase, putative; format: functional, Trypanosoma brucei brucei strain 927/4 GUTat10.1; remark: listed apart in the source
Cryptococcus neoformans = assay: PubChem AID 686997; format: functional, organism-based
[24] = blockers of HIV-1 envelope-mediated cell-cell fusion – cherry-pick, dose response (AID 652057); format: functional, cell-based
[25] = viability loss in CEM21 cells – cell-based, CellTiter-Glo luminescence, cherry-picked, cytotoxicity control for viral fusion inhibitor project, dose response (AID 652042); format: functional;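 also: potency for signal decrease meaning cytotoxicity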
[26] = HIV-1 AD8 envelope cell-cell fusion blockers – cherry-pick, dose response (AID 652062); format: functional, cell-based;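 also: luciferase signal from cell-cell fusion driven by HIV-1 clade B AD8 Env; potency is for inhibitors of fusion seen as a drop in luminescence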

## CCc1ccc(-c2nc3ccc(Br)cc3c(C(=O)O)c2C)s1
Major prion protein
  IC50: 1.24 µM (active)
Cells [1]
  IC50: > 138 µM (inactive)

## Cc1cc(OCC(=O)Nc2ccncc2)c(C)cc1Br
Galanin receptor type 3
  IC50: 1.4 µM (active)
Cells [2]
  EC50: > 29.9 µM (inactive)

## Cc1[nH]c2ccccc2c1NC(=O)CN1CCN(C(=O)c2ccco2)CC1
Coagulation factor XII
  IC50: > 50 µM (inactive)
Mu-type opioid receptor
  EC50: 92.4 µM (inactive)
[3]
  EC50: 4.1 µM (active)

## COCCN1C=C(C(=O)OC)C(c2ccc(Cl)cc2)C(C(=O)OC)=C1
Cells [4]
  AC50: 10.9 µM (active)

## Cn1c(N2CCN(c3ccccn3)CC2)nc2c1c(=O)n(Cc1ccc(Cl)cc1)c(=O)n2C
HEK293 [5]
  EC50: 6.92 µM (active)
HEK293 [6]
  IC50: 7.19 µM (active)
HEK293 [7]
  IC50: 10.9 µM (active)
HEK293 [8]
  IC50: 6 µM (active)
[9]
  EC50: 0.081 µM (active)
[10]
  EC50: 0.0074 µM (active)

## O=C(Nc1ccccc1Cl)c1ccc([N+](=O)[O-])o1
[11]
  EC50: > 160 µM (inactive)
[12]
  EC50: 1.64 µM (active)
Vero [13]
  IC50: > 25 µM (active)
Vero [14]
  CC50: 12.2 µM (active)
[15]
  EC50: > 91.2 µM (inactive)
[16]
  EC50: > 91.2 µM (inactive)

## O=[N+]([O-])c1ccc(COc2ccc(CN3CCOCC3)cc2)cc1
Cells [17]
  IC50: > 67.5 µM (inactive)
[18]
  IC50: > 67.5 µM (inactive)

## CC/N=c1\scc(-c2cccs2)n1/N=C/c1cc(OC)ccc1O
[19]
  IC50: 18.6 µM (active)
[20]
  IC50: 15.8 µM (active)

## Cc1ccccc1-c1c[nH]c(C(O)c2cc(Cl)cc(Cl)c2)n1 (stereo unspecified)
[21]
  IC50: 8.47 µM (active)
[22]
  IC50: 83.3 µM (inactive)
[23]
  IC50: 5.56 µM (active)

## COC(=O)C1=C(C)N(Cc2ccc(Br)cc2)C(=S)NC1c1cccc(Cl)c1 (stereo unspecified)
Cryptococcus neoformans
  AC50: 26.4 µM (active)

## C[C@H](CO)N1C[C@H](C)[C@H](CN(C)S(=O)(=O)c2ccccc2)Oc2cc(Br)ccc2S1(=O)=O
[24]
  AC50: 4.68 µM (active)
[25]
  AC50: 53.4 µM (active)
[26]
  AC50: 38.6 µM (active)
